Results published in US20040037806A1, “Aldosterone blocker therapy to prevent or treat inflammation-related disorders” (Pharmacia Corporation, priority 2002, published 2004).

Assays:
Format in all cases: in vivo, rat
[1] = Assay A: angiotensin II infusion model, urinary Na+/K+ ratio (natriuresis index); details: Wistar rats, 1% NaCl, angiotensin II 25 ng/min sc; eplerenone 100 mpk
Source text: Electrolyte excretion. The ratio between daily urinary Na^+ excretion and urinary K^+ excretion (U Na^+/K^+ ratio) was used as an index for natriuresis. Urinary Na^+/K^+ ratio was similar in all groups before the start of the treatments, and increased similarly in all animals upon initiation of the high salt diet.

[2] = Assay A: angiotensin II infusion model, heart histology (hematoxylin&eosin), vascular inflammation and myocardial injury; details: Wistar rats, 1% NaCl, angiotensin II 25 ng/min sc, 4 weeks, 10/group; eplerenone 100 mpk; aldosterone replacement in adrenalectomized rats
Source text: Assay A: In Vivo Angiotensin II Infusion Model
Male Wistar rats (n=50, 10/group; BW=200 g)
Sacrifice by exanguination after 4 weeks. Blood was be collected in dry tubes for determination of serum electrolytes and in EDTA-containing tubes for measurement of aldosterone and corticosterone levels
Hearts were stained with hematoxylin&eosin and have been analyzed for determination of morphologic abnormalities (i.e. necrosis, vascular injury).

[3] = test system: osteopontin; assay: Assay A: osteopontin immunostaining of hearts; details: angiotensin II-infused, saline-drinking Wistar rats; eplerenone 100 mpk; aldosterone replacement in adrenalectomized rats
[4] = test system: cyclooxygenase-2 (COX-2); assay: Assay A: cyclooxygenase-2 immunostaining of hearts; details: angiotensin II-infused, saline-drinking Wistar rats, eplerenone 100 mpk, aldosterone replacement in adrenalectomized rats
[5] = Assay A: angiotensin II infusion model, systolic blood pressure by tail-cuff; details: Wistar rats, 1% NaCl to drink, angiotensin II 25 ng/min sc, 4 weeks; eplerenone 100 mpk; aldosterone given to adrenalectomized, dexamethasone-treated rats

angiotensin II (DRVYIHPF; Angiotensin-2; UniProt P01019 25-32, looked up) [vasoconstrictive octapeptide infused sc via alzet minipump to induce hypertension]
Urinary Na+/K+ ratio (index for natriuresis) [1]: significantly increased
Vascular inflammatory lesions in the coronary arteries / heart [2]: Seven out of the ten
Osteopontin expression in the heart (immunostaining) [3]: presence of osteopontin in the media of coronary arteries
Cyclooxygenase-2 expression in the heart (immunostaining) [4]: presence of this enzyme in areas of inflammation around the arteries
Cyclooxygenase-2 expression in the heart (immunostaining) ([4]; listed as Ang II): induction of COX-2 expression
Systolic blood pressure [5]: increased
